Assay results as given in patent publication US12552757B2, “NRF2-activating compound” (SENJU PHARMACEUTICAL CO., LTD., priority 2019, dated 2026).

What was measured:
[1] = Measurement of metabolic stability in human liver microsomes; format: in vitro ADME; conditions: residual ratio of test compound after 30 minutes at 37° C. with human liver microsome, LC/MS/MS
Experimental: 1 mmol/L DMSO solutions of the compounds produced in the Examples were prepared. Each of the 1 mmol/L DMSO solutions was diluted with acetonitrile to 10 μmol/L, and then diluted with a 6.5 mmol/L Q-NADPH solution to 200 nmol/L. 50 μL of each solution was added to the reaction group and the non-reaction group. 50 μL of a 0.2 mg protein/mL human liver microsome (Mixed Gender, Pool of 50 livers; XenoTech, LLC) solution was added to the reaction group, followed by incubation at 37° C. for 30 minutes with shaking. After 400 μL of methanol was added to the non-reaction group, 50 μL of a 0.2 mg protein/mL human liver microsome solution was added to adjust the formulation. After incubation in the reaction group, 400 μL of methanol was added to stop the reaction. The samples of the reaction group and non-reaction group were allowed to stand at −20° C. for about 30 minutes, followed by centrifugation at 4° C. at 3000 rpm for about 10 minutes. The supernatant was analyzed using LC/MS/MS, and the residual ratio of the test compound was calculated from the peak area value of the test compound using the following formula. The measurement was carried out using the following devices: HPLC system: LC-20A-Series High Performance Liquid Chromatograph (Shimadzu Corporation) and mass spectrometer: API 4000 (AB Sciex Pte. Ltd.), or using equivalent devices. Residual ratio (%)=(peak area value of test compound in reaction group/peak area value of test compound in non-reaction group)×100 Results

NRF2 = assay: Measurement 2 of Nrf2 activating action (reporter assay) in HCE-T/ARE-Luc cells; format: cell-based; conditions: 50% activation concentration, culture for 24 hours
Experimental: The NRF2 activating action of the compounds on cells was measured by a reporter gene assay. pGL4.37[luc2P/ARE/Hygro](Promega) was introduced into HCE-T cells using FuGENE HD. Cells that acquired drug resistance as a result of transduction were screened by culture in the presence of 50 μg/mL hygromycin, and a clone strain, HCE-T/ARE-Luc, was established.
HCE-T/ARE-Luc was cultured using DMEM/F12, 10 ng/mL hEGF, 5 μg/mL insulin, and 5% FBS. Phenol red-free DMEM/F12 was used as the assay medium.
HCE-T/ARE-Luc was seeded in a 96-well polystyrene microplate (FALCON) with 10000 cells per well. The cells were incubated in a CO: incubator at 37° C. for 16 hours to allow for cell adhesion. The test substance was dissolved in dimethylsulfoxide to prepare a solution at a concentration 1000 times higher than the test concentration. The test substance diluted 1000-fold in the assay medium was added, followed by culture for 24 hours. When measuring the activity of the reporter, the medium containing the test substance was removed, and then a new medium and a substrate of ONE-GloEX Luciferase Assay System (Promega) were added. The plate was shaken for 1 minute and then allowed to stand at ordinary temperature for 10 minutes, and luminescence was detected using the GloMax Discover System.
The 50% activation concentration of each test substance was calculated by creating a calibration curve between two concentrations across the luminescence intensity of 50%.

[2] = target: T1, binding between NRF2 and KEAP1 (Homo sapiens, UniProt Q14145); assay: Measurement 1 of Nrf2 activating action (binding assay): BRET assay of inhibition of the binding between NRF2 and KEAP1; conditions: 50% binding inhibitory concentration, NanoLuc-NRF2 / KEAP1-HaloTag cell lysates
T1 construct: expressed in transfected cells; host or cells: HCE-T cells; each protein was expressed separately, and the two cell lysates were mixed in the well
T1 sequence (Q14145 whole entry): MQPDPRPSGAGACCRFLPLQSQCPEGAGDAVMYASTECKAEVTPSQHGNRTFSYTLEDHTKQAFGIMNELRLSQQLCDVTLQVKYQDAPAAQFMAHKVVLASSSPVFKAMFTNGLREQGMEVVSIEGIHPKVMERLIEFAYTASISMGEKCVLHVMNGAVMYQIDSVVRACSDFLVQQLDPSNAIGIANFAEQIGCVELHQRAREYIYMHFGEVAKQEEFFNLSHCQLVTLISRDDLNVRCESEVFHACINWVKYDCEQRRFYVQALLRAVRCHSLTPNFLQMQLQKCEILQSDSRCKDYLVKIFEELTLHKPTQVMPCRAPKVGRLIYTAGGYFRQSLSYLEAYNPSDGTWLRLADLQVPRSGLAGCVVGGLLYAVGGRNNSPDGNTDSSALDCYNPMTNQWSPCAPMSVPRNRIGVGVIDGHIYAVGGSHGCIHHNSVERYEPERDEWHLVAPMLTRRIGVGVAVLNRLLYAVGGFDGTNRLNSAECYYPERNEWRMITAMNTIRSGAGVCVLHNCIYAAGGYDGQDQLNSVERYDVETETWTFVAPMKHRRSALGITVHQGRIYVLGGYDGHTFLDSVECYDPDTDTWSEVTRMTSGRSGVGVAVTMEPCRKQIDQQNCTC
Experimental: Compounds 1 to 53 produced in the Examples were used as test substances.
The inhibitory activity of each compound on the binding between NRF2 and KEAP1 was measured by bioluminescence resonance energy transfer (BRET) assay. A plasmid having human NRF2 (Original Clone ID: ha01449s1) sequence fused with NanoLuc (19 kDa, Promega) at the N-terminal was transduced into HCE-T cells using FuGENE HD (Promega). 48 hours after transduction, the cell lysate was collected and used as an NRF2-expressing cell lysate. A plasmid having human KEAP1 (Original Clone ID: cs00328) sequence fused with HaloTag (33 kDa, Promega) at the C-terminal was transduced into HCE-T cells using FuGENE HD (Promega). After 24 hours, HaloTag Nano BRET 618 Ligand (Promega) was added to the medium. The cell lysate cultured for 24 hours after the addition was used as a KEAP1-expressing cell lysate.
The NRF2-expressing cell lysate and the KEAP1-expressing cell lysate were adjusted so that the luminescence and fluorescence intensities per well were constant. Tables 1 and 2 show the formulation of each reaction solution.
Each test substance at a concentration 100 times higher than the test concentration was dissolved in dimethylsulfoxide for adjustment. 49 μL of KEAP1 solution was added to a 96-well polystyrene microplate (FALCON) to which 1 μL of each test substance solution was added, followed by incubation for 15 minutes. Then, 50 μL of NRF2 solution was added to the above solution, followed by incubation for 1 hour. To measure the binding between NRF2 and KEAP1, NanoBRET Nano-Glo Substrate (Promega) diluted with Opti-Mem (Thermo Fisher Scientific) was added, followed by shaking for 30 seconds. Then, luminescence and fluorescence were measured using the GloMax Discover System (Promega). A 495-nm short pass filter and a 600-nm long pass filter were respectively used to measure donor and acceptor emission values. A value obtained by dividing the acceptor emission value by the donor emission value was regarded as BRET value. A BRET value when the compound was not added, and a BRET value when the KEAP1 solution was not added were respectively used as binding rates of 100% and 0%, and the binding rate when the compound was added was calculated. Further, using this binding rate, the 50% binding inhibitory activity concentration (IC50) was calculated from the following formula: IC50(M)=10^(LOG(A/B)×(50−C)/(D−C)+LOG(B)) • A: higher concentration out of 2 close concentrations across the inhibition rate of 50% • B: lower concentration out of 2 close concentrations across the inhibition rate of 50% • C: inhibition rate at B • D: inhibition rate at A

SMILES: CC[C@@H]1CN(Cc2cc(C(c3cc(C(C)=O)cs3)C(C)C(=O)O)ccc2C)S(=O)(=O)c2ccccc2O1 (stereo partly drawn) [Compound 3, 3-(4-acetylthiophen-2-yl)-3-(3-{[(R)-4-ethyl-1,1-dioxide-3,4-dihydro-2H-benzo[b][1,4,5]oxathiazepin-2-yl]methyl}-4-methylphenyl)-2-methylpropanoic acid]
- Metabolic stability* [1]: 51%
- EC50 (NRF2): 6.81 nM

SMILES: CC[C@@H]1CN(Cc2cc(C(c3cc(OC)c(C(C)=O)s3)C(C)(C)C(=O)O)ccc2C)S(=O)(=O)c2ccccc2O1 (stereo partly drawn) [Compound 4, 3-(5-acetyl-4-methoxythiophen-2-yl)-3-(3-{[(R)-4-ethyl-1,1-dioxide-3,4-dihydro-2H-benzo[b][1,4,5]oxathiazepin-2-yl]methyl}-4-methylphenyl)-2,2-dimethylpropanoic acid]
- Metabolic stability* [1]: 48%
- EC50 (NRF2): 7.17 nM

SMILES: CC[C@@H]1CN(Cc2cc(C(c3ccc(C(C)=O)s3)C(C)C(=O)O)ccc2C)S(=O)(=O)c2cnccc2O1 (stereo partly drawn) [Compound 16, 3-(5-acetylthiophen-2-yl)-3-(3-{[(R)-4-ethyl-1,1-dioxide-3,4-dihydro-2H-pyrido[4,3-b][1,4,5]oxathiazepin-2-yl]methyl}-4-methylphenyl)-2-methylpropanoic acid]
- Metabolic stability* [1]: 51%
- EC50 (NRF2): 3.57 nM

SMILES: CC[C@@H]1CN(Cc2cc(C(c3cc(OC)c(C(C)=O)s3)C(C)C(=O)O)ccc2C)S(=O)(=O)c2cnccc2O1 (stereo partly drawn) [Compound 51, 3-(5-acetyl-4-methoxythiophen-2-yl)-3-(3-{[(R)-4-ethyl-1,1-dioxide-3,4-dihydro-2H-pyrido[4,3-b][1,4,5]oxathiazepin-2-yl]methyl}-4-methylphenyl)-2-methylpropanoic acid]
- Metabolic stability* [1]: 50%
- EC50 (NRF2): 7.47 nM

SMILES: CC[C@@H]1CN(Cc2cc(C(c3ccc(C(C)=O)s3)C(C)(C)C(=O)O)ccc2C)S(=O)(=O)c2cnccc2O1 (stereo partly drawn) [Compound 48, 3-(5-acetylthiophen-2-yl)-3-(3-{[(R)-4-ethyl-1,1-dioxide-3,4-dihydro-2H-pyrido[4,3-b][1,4,5]oxathiazepin-2-yl]methyl}-4-methylphenyl)-2,2-dimethylpropanoic acid]
- Metabolic stability* [1]: 56%
- EC50 (NRF2): 3.67 nM

SMILES: CC[C@@H]1CN(Cc2cc(C(c3cc(F)c(C(C)=O)s3)C(C)(C)C(=O)O)ccc2C)S(=O)(=O)c2cnccc2O1 (stereo partly drawn) [Compound 49, 3-(5-acetyl-4-fluorothiophen-2-yl)-3-(3-{[(R)-4-ethyl-1,1-dioxide-3,4-dihydro-2H-pyrido[4,3-b][1,4,5]oxathiazepin-2-yl]methyl}-4-methylphenyl)-2,2-dimethylpropanoic acid]
- Metabolic stability* [1]: 44%
- EC50 (NRF2): 7.76 nM

SMILES: CC(=O)c1ccc(C(c2ccc(C)c(CN3CC(CCOCc4ccccc4)Oc4ccccc4S3(=O)=O)c2)C(C)C(=O)O)s1 (stereo not shown) [Compound 13, 3-(5-acetylthiophen-2-yl)-3-[3-({4-[2-(benzyloxy)ethyl]-1,1-dioxide-3,4-dihydro-2H-benzo[b][1,4,5]oxathiazepin-2-yl}methyl)-4-methylphenyl]-2-methylpropanoic acid]
- Metabolic stability* [1]: 2%
- EC50 (NRF2): 6.71 nM

SMILES: CC[C@@H]1CN(Cc2cc(C(c3ccc(C(C)=O)s3)C(C)C(=O)O)ccc2C)S(=O)(=O)c2ccccc2O1 (stereo partly drawn) [Compound 1, 3-(5-acetylthiophen-2-yl)-3-(3-{[(R)-4-ethyl-1,1-dioxide-3,4-dihydro-2H-benzo[b][1,4,5]oxathiazepin-2-yl]methyl}-4-methylphenyl)-2-methylpropanoic acid]
- Metabolic stability* [1]: 37%
- EC50 (NRF2): 9.19 nM

SMILES: CC[C@@H]1CN(Cc2cc(C(c3cc(OC)c(C(C)=O)s3)C(C)(C)C(=O)O)ccc2C)S(=O)(=O)c2cnccc2O1 (stereo partly drawn) [Compound 50, 3-(5-acetyl-4-methoxythiophen-2-yl)-3-(3-{[(R)-4-ethyl-1,1-dioxide-3,4-dihydro-2H-pyrido[4,3-b][1,4,5]oxathiazepin-2-yl]methyl}-4-methylphenyl)-2,2-dimethylpropanoic acid]
- Metabolic stability* [1]: 48%
- EC50 (NRF2): 2.98 nM

SMILES: CC[C@@H]1CN(Cc2cc(C(CC(=O)O)c3cc4c(n3C)CCCC4=O)ccc2C)S(=O)(=O)c2ccccc2O1 (stereo partly drawn) [Compound 37, 3-(3-{[(R)-4-ethyl-1,1-dioxide-3,4-dihydro-2H-benzo[b][1,4,5]oxathiazepin-2-yl]methyl}-4-methylphenyl)-3-(1-methyl-4-oxo-4,5,6,7-tetrahydro-1H-indol-2-yl)propanoic acid]
- IC50 [2]: 0.16 nM
- Metabolic stability* [1]: 89%

SMILES: CC[C@@H]1CN(Cc2cc(C(c3cc(C)c(C(C)=O)s3)C(C)C(=O)O)ccc2C)S(=O)(=O)c2ccccc2O1 (stereo partly drawn) [Compound 2, 3-(5-acetyl-4-methylthiophen-2-yl)-3-(3-{[(R)-4-ethyl-1,1-dioxide-3,4-dihydro-2H-benzo[b][1,4,5]oxathiazepin-2-yl]methyl}-4-methylphenyl)-2-methylpropanoic acid]
- Metabolic stability* [1]: 21%
- EC50 (NRF2): 9 nM
